Laboratory results published in ChEMBL document CHEMBL1944566, “Conjugation of cell-penetrating peptides leads to identification of anti-HIV peptides from matrix proteins” (Bioorg Med Chem, 2012).
Where a SMILES comes first, the peptide text is derived from it. The star is where a group is joined. Cam = NC(=O)C*

How the values were obtained:
[1] = test system: Human immunodeficiency virus 1; experiment: Antiviral activity against X4 tropic HIV1 NL4-3 in MT4 cells assessed as protection from virus-induced cytopathogenicity after 5 days by MTT assay; assay type: functional, organism-based; conditions: Human immunodeficiency virus 1, NL4-3, MT4, 120 h
[2] = Cytotoxicity against human MT4 cells after 5 days by MTT assay; assay type: cell-based

CSCC[C@H](N)C(=O)NCC(=O)N[C@@H](C)C(=O)N[C@@H](CCCNC(=N)N)C(=O)N[C@@H](C)C(=O)N[C@@H](CO)C(=O)N[C@H](C(=O)N[C@@H](CC(C)C)C(=O)N[C@@H](CO)C(=O)NCC(=O)NCC(=O)N[C@@H](CCC(=O)O)C(=O)N[C@@H](CC(C)C)C(=O)N[C@@H](CC(=O)O)C(=O)N[C@@H](CCCCN)C(=O)NCC(=O)N[C@@H](CSCC(N)=O)C(N)=O)C(C)C (H-MGARASVLSGGELDKGC(Cam)-NH2)
EC50 [1]: > 50 µM
CC50 at 120 h [2]: > 50 µM

CC[C@H](C)[C@H](NC(=O)[C@H](Cc1cnc[nH]1)NC(=O)[C@H](CCCCN)NC(=O)[C@H](CC(C)C)NC(=O)[C@H](CCCCN)NC(=O)[C@H](Cc1ccc(O)cc1)NC(=O)[C@H](CCC(N)=O)NC(=O)[C@H](CCC(=O)O)NC(=O)[C@H](Cc1c[nH]c2ccccc12)NC(=O)[C@H](CCCCN)NC(=O)[C@H](CC(=O)O)NC(=O)[C@H](CC(C)C)NC(=O)[C@H](CCC(=O)O)NC(=O)CNC(C)=O)C(=O)N[C@H](C(=O)NCC(=O)N[C@@H](CSCC(N)=O)C(N)=O)C(C)C (Ac-GELDKWEQYKLKHIVGC(Cam)-NH2)
EC50 [1]: > 50 µM
CC50 at 120 h [2]: > 50 µM

CC[C@H](C)[C@H](NC(=O)[C@H](Cc1cnc[nH]1)NC(=O)[C@H](CCCCN)NC(=O)[C@H](CC(C)C)NC(=O)[C@H](CCCCN)NC(=O)[C@H](Cc1ccc(O)cc1)NC(=O)[C@H](CCC(N)=O)NC(=O)[C@H](CCCCN)NC(=O)[C@H](CCCCN)NC(=O)CNC(=O)CNC(=O)[C@@H]1CCCN1C(=O)[C@H](CCCNC(=N)N)NC(=O)[C@H](CC(C)C)NC(C)=O)C(=O)N[C@H](C(=O)NCC(=O)N[C@@H](CSCC(N)=O)C(N)=O)C(C)C
EC50 [1]: > 50 µM
CC50 at 120 h [2]: > 50 µM

CC(=O)N[C@@H](CC(C)C)C(=O)N[C@@H](CCC(=O)O)C(=O)N[C@@H](CCCNC(=N)N)C(=O)N[C@@H](Cc1ccccc1)C(=O)N[C@@H](C)C(=O)N[C@H](C(=O)N[C@@H](CC(N)=O)C(=O)N1CCC[C@H]1C(=O)NCC(=O)N[C@@H](CC(C)C)C(=O)N[C@@H](CC(C)C)C(=O)N[C@@H](CCC(=O)O)C(=O)N[C@H](C(=O)N[C@@H](CO)C(=O)N[C@@H](CCC(=O)O)C(=O)NCC(=O)N[C@@H](CSCC(N)=O)C(N)=O)[C@@H](C)O)C(C)C (Ac-LERFAVNPGLLETSEGC(Cam)-NH2)
EC50 [1]: > 50 µM
CC50 at 120 h [2]: > 50 µM

CC[C@H](C)[C@H](NC(=O)[C@H](CCCCN)NC(=O)[C@H](CC(=O)O)NC(=O)[C@H](CC(C)C)NC(C)=O)C(=O)N[C@@H](CCC(=O)O)C(=O)N[C@@H](CCC(=O)O)C(=O)N[C@@H](CCC(=O)O)C(=O)N[C@@H](CCC(N)=O)C(=O)N[C@@H](CC(N)=O)C(=O)N[C@@H](CCCCN)C(=O)N[C@@H](CO)C(=O)N[C@@H](CCCCN)C(=O)N[C@@H](CCCCN)C(=O)N[C@@H](CCCCN)C(=O)N[C@@H](C)C(=O)NCC(=O)N[C@@H](CSCC(N)=O)C(N)=O (Ac-LDKIEEEQNKSKKKAGC(Cam)-NH2)
EC50 [1]: > 50 µM
CC50 at 120 h [2]: > 50 µM

CC(=O)N[C@@H](CC(C)C)C(=O)NCC(=O)N[C@@H](CCC(N)=O)C(=O)N[C@@H](CC(C)C)C(=O)N[C@@H](CCC(N)=O)C(=O)N1CCC[C@H]1C(=O)N[C@@H](CO)C(=O)N[C@@H](CC(C)C)C(=O)N[C@@H](CCC(N)=O)C(=O)N[C@H](C(=O)NCC(=O)N[C@@H](CO)C(=O)N[C@@H](CCC(=O)O)C(=O)N[C@@H](CCC(=O)O)C(=O)N[C@@H](CC(C)C)C(=O)NCC(=O)N[C@@H](CSCC(N)=O)C(N)=O)[C@@H](C)O (Ac-LGQLQPSLQTGSEELGC(Cam)-NH2)
EC50 [1]: > 50 µM
CC50 at 120 h [2]: > 50 µM

CC(=O)N[C@@H](CO)C(=O)N[C@@H](CCCCN)C(=O)N[C@@H](CCCCN)C(=O)N[C@@H](CCCCN)C(=O)N[C@@H](C)C(=O)N[C@@H](CCC(N)=O)C(=O)N[C@@H](CCC(N)=O)C(=O)N[C@@H](C)C(=O)N[C@@H](C)C(=O)N[C@@H](C)C(=O)N[C@@H](CC(=O)O)C(=O)N[C@H](C(=O)NCC(=O)N[C@@H](CC(N)=O)C(=O)N[C@@H](CC(N)=O)C(=O)NCC(=O)N[C@@H](CSCC(N)=O)C(N)=O)[C@@H](C)O
EC50 [1]: > 50 µM
CC50 at 120 h [2]: > 50 µM
